# Assay results: patent publication EP1433789A1, “Pyrrolopyrazines and their use as selective apoptosis inducers” (Aponetics AG, priority 2002, dated 2004)
# Assays:
# Format in all cases: cell-based, human
# HeLa [1] = experiment: Hoechst 33342 nuclear staining (Table 3); set-up: key: 0 relating to no activity; 1 relating to weak activity comprising less than 50% of the cells; score 2 relating to strong activity comprising more than 50% of the cells
# Method in brief: (§1)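 Adherent cells (3-5×10^3, pre-spread 24 h) or suspension cells (8-10×10^3) treated with compounds at 10, 3, 1 and 0.3 µM for 24 or 48 h, then Hoechst 33342 stained for 30 min. Apoptotic nuclear morphology scored by fluorescence microscopy: 0 none, 1 weak (<50% cells), 2 strong (>50% cells).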
# KB = experiment: Hoechst 33342 nuclear staining (Table 3); set-up: key: 0 relating to no activity; 1 relating to weak activity comprising less than 50% of the cells; score 2 relating to strong activity comprising more than 50% of the cells
# Method in brief: as §1
# HT 1080 = experiment: Hoechst 33342 nuclear staining (Table 3); set-up: key: 0 relating to no activity; 1 relating to weak activity comprising less than 50% of the cells; score 2 relating to strong activity comprising more than 50% of the cells
# Method in brief: as §1
# HBL 100 = experiment: Hoechst 33342 nuclear staining (Table 3); set-up: key: 0 relating to no activity; 1 relating to weak activity comprising less than 50% of the cells; score 2 relating to strong activity comprising more than 50% of the cells
# Method in brief: as §1
# Ramos = experiment: Hoechst 33342 nuclear staining (Table 3); set-up: key: 0 relating to no activity; 1 relating to weak activity comprising less than 50% of the cells; score 2 relating to strong activity comprising more than 50% of the cells
# Method in brief: as §1
# HeLa [2] = experiment: BrdU incorporation (proliferation); set-up: key: 0 for no activity; 1 for a moderate inhibition; 2 for strong inhibition of proliferation; conditions: 48 h
# Experimental: (§2) Adherent cells are seeded out at 2 - 4*10^4 cells/well/ml in 24 well tissue culture plates 24 h prior to treatment. Suspension cells are seeded out at 2*10^5 cells/ml/well in 24 well plates. Compounds are added leading to final concentrations of 3 µM and 10 µM, respectively. Subsequently, BrdU (Molecular Probes #B-23151) at 10 µM final concentration is added and the plates are incubated for 48 h. After the incubation cells are processed according to standard procedures. The detection of the incorporated BrdU is done with the anti-bromodeoxyuridine Mab PRB-1, Alexa Fluor 660 conjugate (Molecular Probes #A-21306). The analysis is performed on a FACSCalibur™ by monitoring the fluorescence activity on FL3. The readout reflects DNA synthesis which is a hallmark for proliferation. The scores are defined the following: 0 for no activity, 1 for a moderate inhibition and 2 for strong inhibition of proliferation. Table 7 indicates inhibitory activities of several tested compounds on proliferation.
# Jurkat = experiment: BrdU incorporation (proliferation); set-up: key: 0 for no activity; 1 for a moderate inhibition; 2 for strong inhibition of proliferation; conditions: 48 h
# Experimental: as §2
smiles,measurement,setting,value
COc1cc2c(cc1OC)-c1c(Br)c3nc4ccccc4nc3n1C(C)C2 (centres unmarked) [compound 10],Hoechst 33342 nuclear staining,"HeLa [1]; 24h, conc 0.3 (µM)",0
same,Hoechst 33342 nuclear staining,"HeLa [1]; 24h, conc 1 (µM)",0
same,Hoechst 33342 nuclear staining,"HeLa [1]; 24h, conc 3 (µM)",0
same,Hoechst 33342 nuclear staining,"HeLa [1]; 24h, conc 10 (µM)",2 (score 2 relating to strong activity comprising more than 50% of the cells)
same,Hoechst 33342 nuclear staining,"HeLa [1]; 48h, conc 0.3 (µM)",0
same,Hoechst 33342 nuclear staining,"HeLa [1]; 48h, conc 1 (µM)",0
same,Hoechst 33342 nuclear staining,"HeLa [1]; 48h, conc 3 (µM)",2 (score 2 relating to strong activity comprising more than 50% of the cells)
same,Hoechst 33342 nuclear staining,"HeLa [1]; 48h, conc 10 (µM)",2 (score 2 relating to strong activity comprising more than 50% of the cells)
same,Hoechst 33342 nuclear staining,"KB; 24h, conc 0.3 (µM)",0
same,Hoechst 33342 nuclear staining,"KB; 24h, conc 1 (µM)",0
same,Hoechst 33342 nuclear staining,"KB; 24h, conc 3 (µM)",2 (score 2 relating to strong activity comprising more than 50% of the cells)
same,Hoechst 33342 nuclear staining,"KB; 24h, conc 10 (µM)",2 (score 2 relating to strong activity comprising more than 50% of the cells)
same,Hoechst 33342 nuclear staining,"KB; 48h, conc 0.3 (µM)",0
same,Hoechst 33342 nuclear staining,"KB; 48h, conc 1 (µM)",2 (score 2 relating to strong activity comprising more than 50% of the cells)
same,Hoechst 33342 nuclear staining,"KB; 48h, conc 3 (µM)",2 (score 2 relating to strong activity comprising more than 50% of the cells)
same,Hoechst 33342 nuclear staining,"KB; 48h, conc 10 (µM)",2 (score 2 relating to strong activity comprising more than 50% of the cells)
same,"Hoechst 33342 nuclear staining (fraction of apoptotic nuclei), score","HT 1080; HT 1080, 24h, 0.3 µM",0
same,"Hoechst 33342 nuclear staining (fraction of apoptotic nuclei), score","HT 1080; HT 1080, 24h, 1 µM",1 (1 relating to weak activity comprising less than 50% of the cells)
same,"Hoechst 33342 nuclear staining (fraction of apoptotic nuclei), score","HT 1080; HT 1080, 24h, 3 µM",2 (score 2 relating to strong activity comprising more than 50% of the cells)
same,"Hoechst 33342 nuclear staining (fraction of apoptotic nuclei), score","HT 1080; HT 1080, 24h, 10 µM",2 (score 2 relating to strong activity comprising more than 50% of the cells)
same,"Hoechst 33342 nuclear staining (fraction of apoptotic nuclei), score","HT 1080; HT 1080, 48h, 0.3 µM",0
same,"Hoechst 33342 nuclear staining (fraction of apoptotic nuclei), score","HT 1080; HT 1080, 48h, 1 µM",2 (score 2 relating to strong activity comprising more than 50% of the cells)
same,"Hoechst 33342 nuclear staining (fraction of apoptotic nuclei), score","HT 1080; HT 1080, 48h, 3 µM",2 (score 2 relating to strong activity comprising more than 50% of the cells)
same,"Hoechst 33342 nuclear staining (fraction of apoptotic nuclei), score","HT 1080; HT 1080, 48h, 10 µM",2 (score 2 relating to strong activity comprising more than 50% of the cells)
same,"Hoechst 33342 nuclear staining (fraction of apoptotic nuclei), score","HBL 100; HBL 100, 24h, 0.3 µM",1 (1 relating to weak activity comprising less than 50% of the cells)
same,"Hoechst 33342 nuclear staining (fraction of apoptotic nuclei), score","HBL 100; HBL 100, 24h, 1 µM",2 (score 2 relating to strong activity comprising more than 50% of the cells)
same,"Hoechst 33342 nuclear staining (fraction of apoptotic nuclei), score","HBL 100; HBL 100, 24h, 3 µM",2 (score 2 relating to strong activity comprising more than 50% of the cells)
same,"Hoechst 33342 nuclear staining (fraction of apoptotic nuclei), score","HBL 100; HBL 100, 24h, 10 µM",2 (score 2 relating to strong activity comprising more than 50% of the cells)
same,"Hoechst 33342 nuclear staining (fraction of apoptotic nuclei), score","HBL 100; HBL 100, 48h, 0.3 µM",2 (score 2 relating to strong activity comprising more than 50% of the cells)
same,"Hoechst 33342 nuclear staining (fraction of apoptotic nuclei), score","HBL 100; HBL 100, 48h, 1 µM",2 (score 2 relating to strong activity comprising more than 50% of the cells)
same,"Hoechst 33342 nuclear staining (fraction of apoptotic nuclei), score","HBL 100; HBL 100, 48h, 3 µM",2 (score 2 relating to strong activity comprising more than 50% of the cells)
same,"Hoechst 33342 nuclear staining (fraction of apoptotic nuclei), score","HBL 100; HBL 100, 48h, 10 µM",2 (score 2 relating to strong activity comprising more than 50% of the cells)
same,Hoechst 33342 nuclear staining,"Ramos; 24h, conc 0.3 (µM)",0
same,Hoechst 33342 nuclear staining,"Ramos; 24h, conc 1 (µM)",0
same,Hoechst 33342 nuclear staining,"Ramos; 24h, conc 3 (µM)",0
same,Hoechst 33342 nuclear staining,"Ramos; 24h, conc 10 (µM)",2 (score 2 relating to strong activity comprising more than 50% of the cells)
same,Hoechst 33342 nuclear staining,"Ramos; 48h, conc 0.3 (µM)",0
same,Hoechst 33342 nuclear staining,"Ramos; 48h, conc 1 (µM)",2 (score 2 relating to strong activity comprising more than 50% of the cells)
same,Hoechst 33342 nuclear staining,"Ramos; 48h, conc 3 (µM)",2 (score 2 relating to strong activity comprising more than 50% of the cells)
same,Hoechst 33342 nuclear staining,"Ramos; 48h, conc 10 (µM)",2 (score 2 relating to strong activity comprising more than 50% of the cells)
same,BrdU incorporation (inhibition of proliferation),HeLa [2]; 3uM,0
same,BrdU incorporation (inhibition of proliferation),HeLa [2]; 10uM,0
same,BrdU incorporation (inhibition of proliferation),Jurkat; 3uM,2
same,BrdU incorporation (inhibition of proliferation),Jurkat; 10uM,1
